Biological target: T1, Bcl-2 protein (Recombinant Human Bcl-2 Protein) (Homo sapiens, UniProt P10415)
T1 construct: purchased Novus NBP2-34889
Assay: Binding evaluation of mixture library compounds to Bcl-2 using AS-MS (affinity selection mass spectrometry)
Details: for ASMS ratio (%) n = 1 / ASMS ratio (%) n = 2: ASMS Ratio(%)=(A−C)/B×100; for ASMS ratio (%) n = 1: replicate n = 1; for ASMS ratio (%) n = 2: replicate n = 2
Outline: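 Readout is ASMS Ratio (%), (A−C)/B×100, from reversed-phase LC/MS of SEC-passed extracts, with protein-free unfiltered standard (B) and protein-free SEC blank (C). Recombinant human Bcl-2 at 20 μM final met ~1200 pooled compounds at […] each for 1 h, 23° C., dark, in Tris-HCl pH 7.4 buffer.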

[1] = AS-MS, mixture of 1200 compounds, Bcl-2
[2] = AS-MS on the mixture of 1200 library compounds

T1 sequence (P10415 whole entry): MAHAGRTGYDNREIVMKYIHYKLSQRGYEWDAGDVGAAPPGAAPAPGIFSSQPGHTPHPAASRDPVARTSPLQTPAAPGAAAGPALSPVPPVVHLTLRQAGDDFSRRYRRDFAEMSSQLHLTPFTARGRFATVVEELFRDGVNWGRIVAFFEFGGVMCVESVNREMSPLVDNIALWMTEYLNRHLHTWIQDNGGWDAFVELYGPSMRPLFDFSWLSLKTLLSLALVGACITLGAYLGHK

| Compound | ASMS ratio (%) n = 1 [1] | ASMS ratio (%) n = 2 [1] | ASMS ratio (%) (n = 1) | ASMS ratio (%) (n = 2) | further results |
| --- | --- | --- | --- | --- | --- |
| CCOc1cncc(-c2ccc(C(=O)N3CCN(c4ccc(C(=O)NCC(F)(F)F)nn4)CC3)c3ccccc23)c1 [B1K014-01, 6-[4-[4-(5-Ethoxypyridin-3-yl)naphthalene-1-carbonyl]piperazin-1-yl]-N-(2,2,2-trifluoroethyl)pyridazine-3-carboxamide] | −0.3% | 0.0% |  |  |  |
| CCOc1cncc(-c2ccc(CN3CCN(c4ccc(C(=O)NS(C)(=O)=O)cc4)CC3)cc2F)c1 [B2I052-01, 4-[4-[[4-(5-Ethoxypyridin-3-yl)-3-fluorophenyl]methyl]piperazin-1-yl]-N-methylsulfonylbenzamide] |  |  | 0.0% | 0.0% |  |
| CCOc1cncc(-c2ccc(C(=O)N3CCN(c4ccc(C(=O)NS(=O)(=O)CC56CC7CC(CC(C7)C5)C6)cc4)CC3)cc2C)c1 [B2A026-01, N-(1-Adamantylmethylsulfonyl)-4-[4-[4-(5-ethoxypyridin-3-yl)-3-methylbenzoyl]piperazin-1-yl]benzamide] |  |  |  |  | ASMS ratio (%) n = 1 (AS-MS, mixture library, Bcl-2): 0.8%; ASMS ratio (%) n = 2 (AS-MS, mixture library, Bcl-2): −2.1% |
| CCOc1cccc(-c2ccc(CN3CCN(c4ccc(C(=O)NS(=O)(=O)c5ccc(NCCSc6ccccc6)c(C(F)(F)F)c5)cc4)CC3)c(OC)c2)c1 [B2R053-01, 4-[4-[[4-(3-Ethoxyphenyl)-2-methoxyphenyl]methyl]piperazin-1-yl]-N-[4-(2-phenylsulfanylethylamino)-3-(trifluoromethyl)phenyl]sulfonylbenzamide] |  |  | −15.0% | 0.0% |  |
| CCOc1cccc(-c2ccc(CN3CCN(c4ccc(C(=O)NCC56CC7CC(CC(C7)C5)C6)nn4)CC3)c(OC)c2)c1 [B1A079-01, N-(1-Adamantylmethyl)-6-[4-[[4-(3-ethoxyphenyl)-2-methoxyphenyl]methyl]piperazin-1-yl]pyridazine-3-carboxamide] | 3.9% | −3.9% |  |  |  |
| CCOc1cncc(-c2csc(C(=O)N3CCN(c4ccc(C(=O)Nc5ccc(OC)cc5)cc4)CC3)c2)c1 [B1O024-01, 4-[4-[4-(5-Ethoxypyridin-3-yl)thiophene-2-carbonyl]piperazin-1-yl]-N-(4-methoxyphenyl)benzamide] |  |  |  |  | ASMS ratio (%) n = 1 [2]: 3.6%; ASMS ratio (%) n = 2 [2]: 2.3% |
| CCOc1cccc(-c2ccc(C(=O)N3CCN(c4ccc(C(=O)NS(=O)(=O)CCC(F)(F)F)cc4)CC3)c3ccccc23)c1 [B2N035-01, 4-[4-[4-(3-Ethoxyphenyl)naphthalene-1-carbonyl]piperazin-1-yl]-N-(3,3,3-trifluoropropylsulfonyl)benzamide] |  |  | 0.0% | 0.0% |  |
| CCOc1cccc(-c2cc(CN3CCN(c4ccc(C(=O)NCC(F)(F)F)nn4)CC3)cc(OC(F)(F)F)c2)c1 [B1K089-01, 6-[4-[[3-(3-Ethoxyphenyl)-5-(trifluoromethoxy)phenyl]methyl]piperazin-1-yl]-N-(2,2,2-trifluoroethyl)pyridazine-3-carboxamide] | 2.0% | 1.0% |  |  |  |
| 6-[4-[4-(3-Ethoxyphenyl)naphthalene-1-carbonyl]piperazin-1-yl]-N-propylpyridazine-3-carboxamide [B1M071-01] | 34.0% | 24.4% |  |  |  |
| CCOc1cncc(-c2ccccc2CN2CCN(c3ccc(C(=O)NS(C)(=O)=O)nn3)CC2)c1 [B2I072-01, 6-[4-[[2-(5-Ethoxypyridin-3-yl)phenyl]methyl]piperazin-1-yl]-N-methylsulfonylpyridazine-3-carboxamide] |  |  | 0.8% | 1.3% |  |
| CCOc1cccc(-c2ccc(CN3CCN(c4ccc(C(=O)N(CC)CC)cc4)CC3)c3ccccc23)c1 [B4J065-01, 4-[4-[[4-(3-Ethoxyphenyl)naphthalen-1-yl]methyl]piperazin-1-yl]-N,N-diethylbenzamide] |  |  |  |  | ASMS ratio (%) n = 1 (AS-MS, mixture library, Bcl-2): 0.0%; ASMS ratio (%) n = 2 (AS-MS, mixture library, Bcl-2): 0.0% |
| CCOc1cccc(-c2ccc(C(C)N3CCN(c4ccc(C(=O)NS(=O)(=O)CCC(F)(F)F)cc4)CC3)c(F)c2)c1 (stereo not drawn) [B2N099-01, 4-[4-[1-[4-(3-Ethoxyphenyl)-2-fluorophenyl]ethyl]piperazin-1-yl]-N-(3,3,3-trifluoropropylsulfonyl)benzamide] |  |  | 0.0% | 0.0% |  |
| CCOc1cncc(-c2cc(CN3CCN(c4ccc(C(=O)NS(=O)(=O)C(C)(C)C)cc4)CC3)cc(C(F)(F)F)c2)c1 [B2L062-01, N-tert-Butylsulfonyl-4-[4-[[3-(5-ethoxypyridin-3-yl)-5-(trifluoromethyl)phenyl]methyl]piperazin-1-yl]benzamide] |  |  | 0.0% | 0.0% |  |
| CCCNC(=O)c1ccc(N2CCN(Cc3ccccc3-c3cncc(OCC)c3)CC2)nn1 [B1M043-01] | 2.2% | −3.1% |  |  |  |
| CCOc1cccc(-c2ccc(C(=O)N3CCN(c4ccc(C(=O)NS(=O)(=O)c5ccc(NCCSc6ccccc6)c(C(F)(F)F)c5)nn4)CC3)c3ccccc23)c1 [B2R013-01, 6-[4-[4-(3-Ethoxyphenyl)naphthalene-1-carbonyl]piperazin-1-yl]-N-[4-(2-phenylsulfanylethylamino)-3-(trifluoromethyl)phenyl]sulfonylpyridazine-3-carboxamide] |  |  | 7.5% | 7.7% |  |
| CCOc1cncc(-c2ccc(C(=O)N3CCN(c4ccc(C(=O)NS(=O)(=O)c5ccc(NCCSc6ccccc6)c(C(F)(F)F)c5)cc4)CC3)cc2C)c1 [B2R026-01, 4-[4-[4-(5-Ethoxypyridin-3-yl)-3-methylbenzoyl]piperazin-1-yl]-N-[4-(2-phenylsulfanylethylamino)-3-(trifluoromethyl)phenyl]sulfonylbenzamide] |  |  | 1.7% | −4.6% |  |
| 6-[4-[3-[2-(5-Ethoxypyridin-3-yl)ethynyl]-5-(trifluoromethyl)benzoyl]piperazin-1-yl]-N-propylpyridazine-3-carboxamide [B1M018-01] | 0.0% | 0.0% |  |  |  |
| CCOc1cncc(-c2csc(CN3CCN(c4ccc(C(=O)NCC(F)(F)F)nn4)CC3)c2)c1 [B1K094-01, 6-[4-[[4-(5-Ethoxypyridin-3-yl)thiophen-2-yl]methyl]piperazin-1-yl]-N-(2,2,2-trifluoroethyl)pyridazine-3-carboxamide] | 1.4% | −0.1% |  |  |  |
| CCOc1cccc(-c2cc(CN3CCN(c4ccc(C(=O)NS(=O)(=O)C(C)(C)C)nn4)CC3)cc(C(F)(F)F)c2)c1 [B2L087-01, N-tert-Butylsulfonyl-6-[4-[[3-(3-ethoxyphenyl)-5-(trifluoromethyl)phenyl]methyl]piperazin-1-yl]pyridazine-3-carboxamide] |  |  | 1.9% | −24.6% |  |
| CCOc1cncc(-c2cc(CN3CCN(c4ccc(C(=O)NCC(F)(F)F)cc4)CC3)cc(OC(F)(F)F)c2)c1 [B1K064-01, 4-[4-[[3-(5-Ethoxypyridin-3-yl)-5-(trifluoromethoxy)phenyl]methyl]piperazin-1-yl]-N-(2,2,2-trifluoroethyl)benzamide] | 1.4% | 0.7% |  |  |  |
| CCOc1cccc(-c2cc(OC)c(CN3CCN(c4ccc(C(=O)NCC56CC7CC(CC(C7)C5)C6)cc4)CC3)c(OC)c2)c1 [B1A059-01, N-(1-Adamantylmethyl)-4-[4-[[4-(3-ethoxyphenyl)-2,6-dimethoxyphenyl]methyl]piperazin-1-yl]benzamide] | 7.7% | −5.5% |  |  |  |
